What all share (assay): inhibition of tumour cell growth, NCI panel, 48 h
In test [1] the test system is HCT-116 colon.
The test system of test [2] is HCC-2998 colon.
Test [3] has as its system MOLT-4 leukemia.
In test [4] the test system is RXF 393 renal.
The test system of test [5] is HL-60(TB) leukemia.
For test [6], the system named is HOP-92 NSCLC.
Test [7] has as its system PC-3 prostate.
Test [8] deals with MDA-MB-231 breast.
In test [9] the test system is HOP-62 NSCLC.
Test [10] has as its system CAKI-1 renal.

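Briefly, cells in 96-well plates were exposed to five compound concentrations for 48 h, and endpoints were estimated by linear interpolation. The concentration for 50% growth inhibition is given as GI50. Definition used: TGI = concentration required for complete inhibition of growth.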

In the case of `C=C(C)[C@@H]1CC[C@]2(C(=O)NS(=O)(=O)c3ccccc3)CC[C@]3(C)[C@H](CC[C@@H]4[C@@]5(C)CC[C@H](OC(=O)NS(=O)(=O)c6ccccc6)C(C)(C)[C@@H]5CC[C@]43C)[C@@H]12`, the GI50 in test [1] is 1.47 µM; in test [2], 1.42 µM; in [3] it was 2.58 µM; in test [4], 1.61 µM; in test [5], 2.24 µM; in test [6] it was 1.9 µM. The GI50 in test [7] is 2.11 µM; in test [8], 2.92 µM; in test [9] it was 2.33 µM; in test [10] it was 3.06 µM. For the same compound, the TGI in test [1] was found to be 3.56 µM; in test [2], 2.85 µM; in [3], 24 µM; in test [4], 3.26 µM; in [5], 5.08 µM; in test [6], 4.72 µM. Also, the TGI in test [7] turned out to be 20.6 µM; in test [8] it was 12.1 µM; in test [9], 6.83 µM; in test [10], 22.5 µM.

Regarding `O=P(O)(O)OCC1OC(n2cnc3c(NCc4ccccc4)ncnc32)C(O)C1O` (stereo not given), the GI50 was 1.66 µM in test [1]; 2.01 µM in test [2]; 0.673 µM in [3]; 1.46 µM in test [4]; 0.346 µM in [5]; 2.14 µM in [6]. Further, the GI50 in test [7] was 1.2 µM; in test [8], 0.35 µM; in test [9], 1.74 µM; in test [10] it was 1.4 µM. In addition, the TGI is greater than 32.1 µM in [1]; 11.8 µM in test [2]; greater than 100 µM in test [3]; 13.8 µM in test [4]; greater than 100 µM in test [5]; greater than 22.5 µM in test [6]. The TGI was greater than 36.2 µM in [7], 1.35 µM in [8], 27.9 µM in test [9] and 14.3 µM in test [10].

In the case of `C[N+](C)=c1ccc2nc3c(cc(NCCCNc4cc5oc6cc(=[N+](C)C)ccc-6nc5c5ccccc45)c4ccccc43)oc-2c1`, the GI50 is 1.95 µM in test [1]; 1.77 µM in test [2]; 3 µM in test [3]; 6.04 µM in [4]; 2.56 µM in test [5]; 14.7 µM in [6]. The GI50 is 1.2 µM in test [7], 1.33 µM in test [8], 2.92 µM in test [9] and 12.7 µM in [10]. Moreover, the TGI was determined as 5.79 µM in test [1]; 3.47 µM in test [2]; 25 µM in test [3]; 37.5 µM in test [4]; 9.25 µM in [5]; 40.1 µM in test [6]. Moreover, the TGI stood at 5.64 µM in test [7], 4.83 µM in test [8], 13 µM in test [9] and 35.4 µM in test [10].

As to `O=C(/C=C/C12c3ccccc3C(c3ccccc31)C1C(=O)NC(=O)C12)c1ccccc1` (stereo not given), the GI50 was 1.35 µM in test [1]; 1.7 µM in [2]; 2.17 µM in test [3]; 1.5 µM in test [4]; 1.5 µM in test [5]; 1.41 µM in test [6]. For the same compound, the GI50 in test [7] was 1.62 µM; in test [8] it was 2.96 µM; in test [9] it was 2.17 µM; in [10], 1.49 µM. The TGI was 2.89 µM in test [1]; 3.27 µM in [2]; 11.6 µM in test [3]; 2.94 µM in test [4]; 5.97 µM in [5]; 3.52 µM in test [6]. The TGI in test [7] is 3.45 µM; in test [8], 13.1 µM; in [9], 4.38 µM; in test [10], 3.68 µM.

Turning to `C[C@@H]1CC[C@@]2(NC1)O[C@H]1C[C@H]3[C@@H]4CC[C@H]5C[C@@H](O)CC[C@]5(C)[C@H]4CC[C@]3(C)[C@H]1[C@@H]2C`, the TGI is greater than 100 µM in test [1]; greater than 100 µM in [2]; greater than 100 µM in test [3]; greater than 100 µM in [4]; 53.8 µM in test [5]; greater than 100 µM in [6]. The TGI in test [7], in test [8], in test [9] and in test [10] was greater than 100 µM in each case.

In the case of `CN(C)CCCNc1nc2ccccc2c2[nH]c3ccccc3c12`, the GI50 was 0.222 µM in test [1]; 0.251 µM in [2]; 0.276 µM in test [3]; 1.23 µM in [4]; 1.05 µM in test [5]; 1.26 µM in test [6]. The GI50 in test [7] was 0.897 µM; in test [8], 0.907 µM; in test [9], 0.497 µM; in test [10], 1.09 µM. The TGI in test [1] was 1.67 µM; in test [2] it was 0.942 µM; in [3], 50 µM; in [4] it was 3.55 µM; in test [5], 2.49 µM; in test [6] it was 3.83 µM. Also, the TGI worked out at 2.97 µM in [7], 2.16 µM in test [8], 3.77 µM in test [9] and 3.01 µM in test [10].

On to `O=C([O-])CC(=O)[O-].[NH-][C@@H]1CCCC[C@H]1[NH-].[Pt+4]`, for which the GI50 was 4.84 µM in test [1]; 18.9 µM in test [2]; 1.29 µM in test [3]; greater than 79 µM in test [4]; 6.31 µM in [5]; greater than 100 µM in test [6]. Further, the GI50 is 37 µM in [7], greater than 100 µM in [8], greater than 27.1 µM in [9] and 3.53 µM in test [10]. Moreover, the TGI in [1] is greater than 100 µM; in test [2], greater than 100 µM; in test [3], 61.4 µM; in [4] it was greater than 100 µM; in [5], greater than 100 µM; in test [6] it was greater than 100 µM. Moreover, the TGI in test [7], in test [8], in test [9] and in test [10] was greater than 100 µM in each case.

The values are drawn from PubChem BioAssay (NCI).
